Tests used:
p38 = p38 (Homo sapiens, UniProt Q16539); experiment: p38 in vitro kinase assay (SPA, GST-ATF2 substrate); format: biochemical; settings: amount necessary to achieve 50% inhibition
Description: (§1) JNK 2 and 3 in vitro assays: JNK3 and/or 2 assays are performed in 96 well MTT plates, by incubation of 0.5 μg of recombinant pre-activated GST-JNK or GST-JNK2 with 1 μg of recombinant, biotinylated GST-c-Jun and 2 μM ^33γ-ATP (2 nCi/μl), in the to presence or absence of sulfonamide inhibitors if formula I and in a reaction volume of 50 μl containing 50 mM Tris-HCl, pH 8.0; 10 mM MgCl2; 1 mM Dithiothreitol, and 100 μM NaVO4. The incubation is performed for 120 min. at R.T and stopped upon addition of 200 μl of a solution containing 250 μg of Streptavidine-coated SPA beads (Amersham, Inc.)^•, 5 mM EDTA, 0.1% Triton X-100 and 50 μM ATP, in phosphate saline buffer. After incubation for 60 minutes at RT, beads are sedimented by centrifugation at 1500×g for 5 minutes, resuspended in 200 μl of PBS containing 5 mM EDTA, 0.1% Triton X-100 and 50 μM ATP and the radioactivity measured in a scintillation β counter, following sedimentation of the beads as described above. By substituting GST-c Jun for biotinylated GST-1ATF2 or myelin basic protein, this assay can be used to measure inhibition of preactivated p38 and ERK MAP Kinases, respectively.
(§2) The values indicated in respect of JNK2 and 3, p38 and ERK2 refer to the IC50 (μM), i.e. the amount necessary to achieve 50% inhibition of said target (e.g. JNK2). From the above table it could be derived that said test compounds according to formula I do have a significant effect both on JNK2 and 3, but virtually no effect onto p38 and ERK2, thus delivering a quite selective inhibitory effect.

[1] = test system: IL-2 release by PMA+Iono-stimulated Jurkat cells; experiment: IL-2 release assay (ELISA); format: cell-based; settings: Homo sapiens, PMA+Ionomycine-stimulated Jurkat cells, 24 hours, read-out: % Inhibition of IL2 Production @3 uM
Description: Jurkat cells, a human T cell leukemia cell line (American Type Culture Collection # TIB 152) were cultured in RPMI 1640 medium (Gibco, BRL) supplemented with 10% of […] FCS, Glutamine and Penstrep. The cell suspension in the medium is diluted to give 2.10^6 cells/mL. The cells were plated (2.10^5 cells/well) on a 96-well plate containing different concentration of test compound (final concentration of compounds, 10, 3, 1, […], 0.1 μM). This mixture is incubated 30 minutes at 37° C. in a humidified CO2 atmosphere. Cells were then treated with 10 ul PMA+Ionomycine (0.1 μM and 1 μM final concentration) in all wells except negative control. In wells without compounds, 10 μl of RPMI 2% DMSO (=0.1% final) is added. Cells are incubated 24 hours at 37° C. and then the supernatant harvested (freeze at −20° C. if not used the same day) prior to performing IL-2 ELISA test on the supernatant.
IL-2 release into the medium by PMA+Iono-stimulated Jurkat cells, in presence or absence of test compounds is assayed by ELISA. Following the procedure described below
Transfer 100 μl capture antibody diluted in PBS at 5 μg/mL into a 96 well ELISA plate and incubate overnight at room temperature.
Aspirate each well and wash 3 times with Wash buffer. After the last wash, damp the plate.
1. Saturate with 200 μl PBS-10% FCS. Incubate 1 hour at room temperature.
2. Repeat the wash step 2.
• 1. Add 100 μl of sample or standard ([…]) and incubate 2 hours at room temperature. • 2. Wash 3 times. • 3. Add 100 μl of biotinylated anti-human IL-2 at 12.5 ng/mL. Incubate 2 hours at room temperature. • 4. Wash 3 times. • 5. Add 100 μl streptavidin-HRP (Zymed #43-4323) at 1:10′000. Incubate 30 minutes at room temperature. • 6. Wash 3 times • 7. Add 100 μl substrate solution (citric acid/Na2HPO4 (1:1)+H2O2 1:2000+OPD). Incubate 20-30 minutes at room temperature. • 8. Add 50 μl of stop solution to each well. • 9. Determine optical density using a microliter plate reader set to 450 nm with correction at 570 nm.

ERK2 = ERK2 (Homo sapiens, UniProt P28482); experiment: ERK2 in vitro kinase assay (SPA, myelin basic protein substrate); format: biochemical; settings: amount necessary to achieve 50% inhibition
Description: as §1, §2

JNK3 = JNK3 (Homo sapiens, UniProt P53779); experiment: JNK3 in vitro assay (SPA, GST-c-Jun phosphorylation); format: biochemical; settings: amount necessary to achieve 50% inhibition, GST-c-Jun substrate
Description: as §1, §2

JNK2 = JNK2 (Homo sapiens, UniProt P45984); experiment: JNK2 in vitro assay (SPA, GST-c-Jun phosphorylation); format: biochemical; settings: amount necessary to achieve 50% inhibition, GST-c-Jun substrate
Description: as §1, §2

Hlr c-Jun HeLa cells = experiment: C-Jun reporter assay (Dual-Luciferase); format: cell-based; settings: Homo sapiens, Hlr c-Jun HeLa cells transfected with pMEKK1
Description: Hlr c-Jun HeLa cells are cultured in DMEM High Glc supplemented with 10% FCS (Sigma), 2 mM Glutamine (Gibco), P/S, Hygromycin b 100 μg/mL and G418 250 μg/mL
The cell suspension are diluted with medium to give about 3.5×10^6 cells/mL and 1 mL of cell suspension are put onto 2 10 cm culture dishes containing 9 mL of culture medium.
• Control: 0.2 μg pTK Renilla, 5.8 μg pBluescript KS, 500 μl OPTIMEM (GIBCO), 18 μl Fugene 6 • Induced: 0.1 μg pMEKK1, 0.2 μg pTK Renilla, 5.7 μg pBluescript KS, 500 μl OPTIMEM (GIBCO), 18 μl Fugene 6 30′ RT
The transfection mixture is added to the plated cells. The plates are incubated over night at 37° C. in a humidified atmosphere of 5% CO2 in air
A 96 wells plate containing 100 μl of culture medium per well is prepared
Negative control (vehicle): 2 μl of DMSO is added to the 100 μl (in triplicate).
Compound: 2 μl of Hit compound stock dilution are added to the 100 μl (in triplicate).
The transfected cells are trypsinised and ressuspend in 12 mL of culture medium.
100 μl of the dilution are added to each of the 96 wells plate.
The plate is incubated over night at 37° C. in a humidified atmosphere of 5% CO2 in air
Dual-Luciferase™ Reporter Assay System (Promega)
The medium is removed from the plate and the cells washed two times with 100 μl PBS Completely remove the rinse solution before applying PLB reagent. Dispense into each culture well […] of 1×PLB. Place the culture plates on a rocking platform or orbital shaker with gentle
rocking/shaking to ensure complete and even coverage of the cell monolayer with 1×PLB. Rock the culture plates at room temperature for 15 minutes. Transfer 20 μl of the lysate into a white opaque 96 wells plate. Read in a luminometer.
• Inject 50 μl of Luciferase Assay Reagent II wait 5″, read 10″ • Inject 50 μl of Stop & Glo® Reagent wait 5″, read 10″ Check RLU Luciferase/RLU Renilla *1000

JNK2, sequence (P45984 whole entry, species assumed): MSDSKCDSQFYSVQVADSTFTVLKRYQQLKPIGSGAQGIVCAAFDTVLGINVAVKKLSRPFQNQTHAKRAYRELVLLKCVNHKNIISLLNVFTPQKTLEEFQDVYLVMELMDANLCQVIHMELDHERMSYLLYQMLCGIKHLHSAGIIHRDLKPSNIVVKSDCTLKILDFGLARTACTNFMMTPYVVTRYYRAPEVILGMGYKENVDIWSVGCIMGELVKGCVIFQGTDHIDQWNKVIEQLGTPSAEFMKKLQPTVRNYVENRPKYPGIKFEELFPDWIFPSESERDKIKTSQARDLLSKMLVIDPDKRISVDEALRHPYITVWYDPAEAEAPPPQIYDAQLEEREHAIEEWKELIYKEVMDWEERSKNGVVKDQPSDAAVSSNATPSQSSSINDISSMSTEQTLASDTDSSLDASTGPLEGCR
p38, sequence (Q16539 whole entry): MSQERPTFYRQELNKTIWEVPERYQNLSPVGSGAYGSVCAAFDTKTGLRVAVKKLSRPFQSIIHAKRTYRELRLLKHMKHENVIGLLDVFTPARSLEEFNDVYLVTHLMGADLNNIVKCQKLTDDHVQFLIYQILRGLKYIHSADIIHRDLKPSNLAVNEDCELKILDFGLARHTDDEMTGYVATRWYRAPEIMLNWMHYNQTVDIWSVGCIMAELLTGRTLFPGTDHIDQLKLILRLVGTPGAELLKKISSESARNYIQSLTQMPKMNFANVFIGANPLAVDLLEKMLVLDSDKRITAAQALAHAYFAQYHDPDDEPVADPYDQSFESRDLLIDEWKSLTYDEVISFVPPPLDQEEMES
ERK2, sequence (P28482 whole entry, species assumed): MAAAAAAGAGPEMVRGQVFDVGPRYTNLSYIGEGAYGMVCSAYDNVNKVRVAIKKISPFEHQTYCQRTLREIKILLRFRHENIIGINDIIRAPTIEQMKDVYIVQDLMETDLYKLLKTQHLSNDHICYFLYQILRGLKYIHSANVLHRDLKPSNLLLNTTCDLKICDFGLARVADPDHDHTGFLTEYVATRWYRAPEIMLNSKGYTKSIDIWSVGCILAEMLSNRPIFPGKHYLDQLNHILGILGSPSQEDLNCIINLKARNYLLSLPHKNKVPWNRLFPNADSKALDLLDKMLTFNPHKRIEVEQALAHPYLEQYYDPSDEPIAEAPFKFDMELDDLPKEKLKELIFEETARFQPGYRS
JNK3, sequence (P53779 whole entry, species assumed): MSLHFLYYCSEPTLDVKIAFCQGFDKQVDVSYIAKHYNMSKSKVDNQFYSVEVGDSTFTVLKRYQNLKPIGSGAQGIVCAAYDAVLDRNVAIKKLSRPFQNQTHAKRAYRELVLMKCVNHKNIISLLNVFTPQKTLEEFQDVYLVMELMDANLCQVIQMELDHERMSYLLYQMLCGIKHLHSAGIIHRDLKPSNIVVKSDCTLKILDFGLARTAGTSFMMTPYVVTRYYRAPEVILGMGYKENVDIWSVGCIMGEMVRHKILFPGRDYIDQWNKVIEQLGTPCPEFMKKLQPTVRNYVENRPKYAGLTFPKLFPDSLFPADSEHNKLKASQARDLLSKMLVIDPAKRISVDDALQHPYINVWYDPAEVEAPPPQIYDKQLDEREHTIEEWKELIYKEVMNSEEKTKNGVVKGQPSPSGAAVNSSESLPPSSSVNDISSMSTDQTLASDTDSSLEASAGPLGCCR

Row | SMILES | IC50 (p38) [nM] | inhibition at 3 µM [1] [%] | IC50 (ERK2) [nM] | IC50 (JNK3) [nM] | IC50 (JNK2) [nM] | inhibition at 10 µM (Hlr c-Jun HeLa cells) [%]
1 | O=C(NCc1ccc(S(=O)(=O)N2CCC(Nc3cccc(S(=O)(=O)CCO)c3)CC2)s1)c1ccc(Cl)cc1 [Example 131, 4-chloro-N-({5-[(4-{3-[(2-hydroxyethyl)sulfonyl]-anilino}piperidin-1-yl)sulfonyl]thien-2-yl}methyl)-benzamide] | > 30000 | > 30 | > 30000 | 710 | 2230 | > 30
2 | COc1cccc(C(=O)NCc2ccc(S(=O)(=O)N3CCC(Nc4ccccc4[N+](=O)[O-])CC3)s2)c1 [Example 285, N-({5-[(4-{2-nitroanilino}piperidin-1-yl)sulfonyl]thien-2-yl}methyl)-3-methoxybenzamide] | > 30000 | > 30 | > 30000 | 190 | 230 | > 30
3 | O=C(NCc1ccc(S(=O)(=O)N2CCN(C(=O)c3cccc4ccccc34)CC2)s1)c1ccc(Cl)cc1 [Example 168, 4-chloro-N-[(5-{[4-(1-naphthoyl)piperazin-1-yl]sulfonyl}thien-2-yl)methyl]benzamide] | > 30000 | > 30 | > 30000 | 890 | 1200 | > 30
4 | O=C(NCc1ccc(S(=O)(=O)N2CCC(n3nnc4ccccc43)CC2)s1)c1ccccc1O [Example 271, N-[(5-{[4-(1H-1,2,3-benzotriazol-1-yl)piperidin-1-yl]sulfonyl}thien-2-yl)methyl]-2-hydroxybenzamide] | > 30000 | > 30 | > 30000 | 360 | 220 | > 30
5 | O=C(NCc1ccc(S(=O)(=O)N2CCC(Nc3ccccc3)CC2)s1)c1ccc(Cl)cc1 [Example 86, N-({5-[(4-anilinopiperidin-1-yl)sulfonyl]thien-2-yl}methyl)-4-chlorobenzamide] | > 30000 | > 30 | > 30000 | 800 | 1050 | > 30
6 | COc1cccc(NC2CCN(S(=O)(=O)c3ccc(CNC(=O)c4ccc([N+](=O)[O-])cc4)s3)CC2)c1 [Example 204, 4-nitro-N-[(5-{[4-(3-methoxyanilino)piperidin-1-yl]sulfonyl}thien-2-yl)methyl]-benzamide] | > 30000 | > 30 | > 30000 | 170 | 220 | > 30
7 | COC(=O)c1cccc(NC2CCN(S(=O)(=O)c3ccc(CNC(=O)c4ccc([N+](=O)[O-])cc4)s3)CC2)c1 [Example 211, methyl 3-{[1-({5-[({4-nitrobenzoyl}amino)methyl]thien-2-yl}sulfonyl)piperidin-4-yl]amino}benzoate] | > 30000 | > 30 | > 30000 | 270 | 390 | > 30
8 | O=C(NCc1ccc(S(=O)(=O)N2CCC(n3cnc4ccccc43)CC2)s1)c1ccc(Cl)cc1 [Example 109, N-[(5-{[4-(1H-benzimidazol-1-yl)piperidin-1-yl]sulfonyl}thien-2-yl)methyl]-4-chlorobenzamide] | > 30000 | > 30 | > 30000 | 230 | 590 | > 30
9 | O=C(NCc1ccc(S(=O)(=O)N2CCC(n3nnc4ccccc43)CC2)s1)c1ccc(Cl)cc1 [Example 91, N-[(5-{[4-(1H-1,2,3-benzotriazol-1-yl)piperidin-1-yl]sulfonyl}thien-2-yl)methyl]-4-chlorobenzamide] | > 30000 | > 30 | > 30000 | 150 | 640 | > 30
10 | O=C(NCc1ccc(S(=O)(=O)N2CCCN(C(=O)Cc3ccccc3)CC2)s1)c1ccc(Cl)cc1 [Example 84, 4-chloro-N-[(5-{[4-(phenylacetyl)-1,4-diazepan-1-yl]sulfonyl}thien-2-yl)methyl]benzamide] | > 30000 | > 30 | > 30000 | 860 | 1300 | > 30
11 | O=C(NCc1ccc(S(=O)(=O)N2CCC(C(=O)c3ccc(F)cc3F)CC2)s1)c1ccc(Cl)cc1 [Example 37, 4-chloro-N-[(5-{[4-(2,4-difluorobenzoyl)piperidin-1-yl]sulfonyl}thien-2-yl)methyl]benzamide] | > 30000 | > 30 | > 30000 | 680 | 1190 | > 30
12 | NS(=O)(=O)c1cccc(NC2CCN(S(=O)(=O)c3ccc(CNC(=O)c4ccc(Cl)cc4)s3)CC2)c1 [Example 155, N-{[5-({4-[3-(aminosulfonyl)anilino]piperidin-1-yl}sulfonyl)thien-2-yl]methyl}-4-chlorobenzamide] | > 30000 | > 30 | > 30000 | 530 | 500 | > 30
13 | O=C(NCc1ccc(S(=O)(=O)N2CCC(Nc3ccc(Cl)cc3)CC2)s1)c1ccc(Cl)cc1 [Example 120, 4-chloro-N-[(5-{[4-(4-chloroanilino)piperidin-1-yl]sulfonyl}thien-2-yl)methyl]benzamide] | > 30000 | > 30 | > 30000 | 400 | 560 | > 30

— patent publication US8012995B1, “Pharmaceutically active sulfonamide derivatives” (Merck Serono SA, priority 1999, dated 2011)
